Measured values reported in a melting point compilation (Tetko et al.; mined from patent text by program, amines drawn as free bases though some values may be those of a salt).

| SMILES | melting point [°C] |
| --- | --- |
| CCN1CCCC1CNC(=O)c1ccc(Nc2ncnc3cc(C(F)(F)F)ccc23)cc1 (stereo not drawn) | 150 to 152 |
| COCCc1nc2c(N)nc3ccccc3c2n1CCCNS(C)(=O)=O | 193 to 194 |
| CCOC(=O)C(C)c1ccc(-c2ccc(F)cc2F)c(O)c1 (stereo not drawn) | 72 to 73 |
| COc1cncc(-c2cc(=S)ss2)n1 | 149 |
| O=C1C(N2CCOCC2)=CCCN1c1ccc(I)cc1 | 138 to 148 |
| CCCC/C=C/C(=O)N(C)c1ccc(S(=O)(=O)NC2CCCCCC2)cc1 | 114 |
| CN1CCN(C(=O)c2nc(-c3ccccc3)nc3c2c2ccc(Cl)cc2n3C)CC1 | 236 to 238 |
| O=C1CNC(=O)N1Cc1ccc2ccn(C3CCN(CCc4ccc(F)cc4)CC3)c2c1 | 156 to 157 |
| CCC(Cn1nc(-c2ccccc2)c(-c2ccccc2)c(C#N)c1=O)[N+](=O)[O-] (stereo not drawn) | 154 to 155 |
| CCOc1nnc2n1C=Cc1ccccc1C2 | 143 to 144 |
| C#CCNc1cc(C(=O)O)cc(S(N)(=O)=O)c1Oc1ccccc1 | 222 to 223 |
| Cc1ccc(-c2c(C(N)=O)n(C)c(=O)c3ncccc23)cc1 | > 310 |
| O=C(NCCc1ccccc1)c1cc2c(cn1)[nH]c1ccccc12 | 297 to 298 |
| O=S(=O)(c1ccc(Cl)cc1)c1ccc(NCc2nnn[nH]2)cc1 | 102 to 105 |
| CCCCc1ccc(-c2ccc(-c3ccc(CC)cc3)cc2F)s1 | 37 |
| CCC(CC)Nc1cc(C)nc(Oc2c(C)cc(C)cc2C)c1C(=O)OC | 98 to 102 |
| CC(=O)OCCc1nc2c(N)nc3ccccc3c2n1CC(C)C | 187 to 189 |
| CCOc1ccc(OCC(C)(NS(=O)(=O)Cc2ccccc2)C(=O)N(C)OC)cc1 (stereo not drawn) | 179 to 181 |
| CN(CCCNc1ccc(C#N)cc1)C1C2CCC1CN(Cc1ccccc1)C2 (stereo not drawn) | 91 to 93 |
| CCCCCCCCCCCCCCOc1ccc(COC(=O)NCc2ccccn2)cc1 | 67 to 68 |
| COc1ccc2c(c1)CCC1C2CCC2(C)C(=O)C(Br)CC12 (stereo not drawn) | 146 to 149 |
| Nc1cc(C(=O)O)ccc1-c1nnc(-c2ccc(C(F)(F)F)cc2)o1 | > 300 |
| O=C1SCNc2sccc21 | 153 to 155 |
| COC(C)=CC(=O)Nc1cccc([N+](=O)[O-])c1 | 187 |
| COC(=O)CCC(=O)NS(=O)(=O)c1ccc([N+](=O)[O-])cc1 | 156 |

| SMILES | melting point [°C] |
| --- | --- |
| CS(=O)(=O)c1ccc(Oc2cc(OCc3cccc(Cl)n3)c3[nH]c(C(N)=O)cc3c2)cc1 | 259 to 260 |
| CCCc1nc(S)nn1-c1ccccc1 | 142 to 143 |
| O=C(Cc1ccccc1N1CCCC1)N1C[C@@H]2[C@H](F)CCC(c3ccccc3)(c3ccccc3)[C@@H]2C1 | 170 |
| CC(C)(C)NC(=O)c1ccc2ccccc2c1 | 155 to 159 |
| COC(=O)C1=C(C)N(C)C(C)=C(C(=O)OC)C1c1ccccc1 | 151 to 153 |
| Cc1nc(NCc2ccccc2)sc1C(=O)NCc1ccccc1 | 169 to 172 |
| O=CC1=C(Cl)c2cccc(Cl)c2CC1 | 83.5 to 84 |
| CC(C)c1nc(COCc2ccccc2)n(CC2CC2)c1Sc1cc(Cl)cc(Cl)c1 | 120 to 121 |
| CC(C(=O)O)c1cccc(Sc2ccccc2F)c1O (stereo not drawn) | 116 to 117 |
| COc1cccc(C2c3ccccc3C(c3ccc4c(c3)OCO4)C2C(=O)O)c1 (stereo not drawn) | 131 to 133 |
| Cc1c(F)cc2c(=O)c(C(=O)O)cn(C3CC3)c2c1F | 208 to 210 |
| CC(C)c1cccc(C(C)C)c1NC(=O)C(Cc1ccccc1)NC(=O)CCCCl (stereo not drawn) | 212 to 215 |
| CC(=O)Nc1ccc(CN2CCC(C(c3ccccc3)c3ccccc3)CC2)cc1 | 182 to 183 |
| CC(C)(C=O)N1C(=O)c2ccccc2C1=O | 80 to 82 |
| CC(C)(CCCCCCC(=O)CCCCCCC(C)(C)C(=O)O)C(=O)O | 74.5 to 76 |
| O=C(C(CCO)N1CCCC1=O)N1CCOCC1 (stereo not drawn) | 105 to 106 |
| O=C1CC(c2cccc(-n3ccnc3)c2)=Nc2cc(Cl)c(-c3ccc(F)cc3)cc2N1 | 209 to 211 |
| COc1ccc2c(c1)C(=O)NCCS2 | 164 to 166 |
| COC(=O)c1ccc(O)c(C(C)(C)C)c1 | 144 to 145 |
| FC(F)(F)c1ccc(OCCc2c[nH]cn2)cc1 | 105 to 109 |
| O=C(CNC(=O)C1CCCCC1)c1ccccc1 | 114 to 115 |
| COc1ccc(ONc2ccccc2)cc1 | 70 to 73 |
| CC1(C)Cc2c(ccc3c2C(c2cccc(-c4ccc(NC(=O)OCc5ccccc5)cc4)c2)=NCC3(C)C)O1 | 126 to 129 |
| CCOCCn1c(N2CCCN(CCC3(c4ccccn4)CCN(C(=O)c4cc(OC)c(OC)c(OC)c4)C3)CC2)nc2ccccc21 (stereo not drawn) | 50 to 55 |
| COc1cc2cc([N+](=O)[O-])c(OCc3ccccc3)cc2oc1=O | 226 to 228 |

| SMILES | melting point [°C] |
| --- | --- |
| COc1cc(C)c(C=CC(C)=CC=CC(C)=CC(=O)O)c(C)c1 | 207 to 208 |
| CC#CCOc1ccc(S(=O)(=O)CNCC(C(=O)NO)N2CCN(S(C)(=O)=O)CC2)cc1 (stereo not drawn) | 86 |
| Cc1ccc(Oc2ccccc2C(=N)NO)c(O)c1 | 85 to 87 |
| COC(=O)C=C1CN=C(c2ccccc2Cl)c2cc(Cl)ccc2N1 | 154 to 158 |
| C#CCN(C(=O)c1cnc(Cl)nc1C(F)(F)F)S(=O)(=O)c1cccc(Cl)c1 | 106 to 107 |
| O[C@H]1COC(c2ccc3c(c2)OCO3)=N[C@@H]1c1ccccc1 (racemic) | 137 |
| Cc1nc(NC(=O)CC2CC2)sc1C(=O)NCc1ccccc1 | 136 to 139 |
| CN(C)C(=S)Oc1ccc(C(=O)c2ccc(C#N)cc2)cc1 | 162 |
| COc1cccc(OC)c1C(=O)Nc1nnc(-c2ccccc2Cl)s1 | 235 to 237 |
| O=C(Cc1noc2ccccc12)NS(=O)(=O)c1ccc(Cl)cc1 | 209 to 211 |
| CCOc1nn(Cc2ccc(OCc3cccnc3)cc2)cc1CCC(=O)O | 120 to 121 |
| CN1Cc2c(C(N)=O)ncn2-c2cccc(Br)c2C1=O | 278 to 279 |
| COP(=O)(OC)[C@@H](O)[C@H](CC1CCCCC1)NC(=O)[C@H](CC(C)C)NC(=O)CCc1ccccc1 | 157 |
| Cc1nc2ccc(F)cc2[nH]1 | 177 to 178 |
| CNCc1c(C)c([N+](=O)[O-])cc2[nH]c(=O)c(=O)[nH]c12 | 260 to 261 |
| CC(=O)CCCCCNC(=O)Nc1ccccc1CCc1cc(C(C)(C)C)c(O)c(C(C)(C)C)c1 | 73 to 76 |
| CP(C)(=O)C1CC(c2ccccc2)=NO1 (stereo not drawn) | 153 |
| CNc1nc(Nc2ccc(Cl)c(CNC(=O)OC(C)(C)C)c2)ncc1[N+](=O)[O-] | 195 |
| Cc1cc(Oc2c(Cl)cc(C(F)(F)F)cc2Cl)nn1C(=O)NOCc1ccccc1 | 98 to 100 |
| C#CCCC(=O)N1CCC(=Cc2ccc(C3=NCCO3)cc2)CC1 | 118 |
| CCOc1ccc(-c2cc3ccccc3[nH]2)cc1OC | 177 |
| CC(C)Cc1nn(C)c(=O)c2c(S(=O)(=O)CCCO)c(Cc3ccccc3)sc12 | 105 to 107 |
| O=C1CCC(c2ccccc2)(c2ccccc2)C2CN(C(Cc3ccccc3)=NC(c3ccccc3)c3ccccc3)CC12 (stereo not drawn) | 172 |
